Results reported in ChEMBL document CHEMBL3808292, “Synthesis and biological evaluation of 5,7-dihydroxyflavanone derivatives as antimicrobial agents” (Bioorg Med Chem Lett, 2016).
In brackets after ≈: the same amount, converted by molar mass.

How the values were obtained:
[1] = tested on: Escherichia coli; experiment: Antimicrobial activity against Escherichia coli BW25113 after 24 hrs by spectrophotometric method; type: functional; details: BW25113, 24 h
[2] = Aqueous solubility of compound; type: physicochemical; details: buffer
[3] = tested on: Vibrio cholerae; experiment: Antimicrobial activity against Vibrio cholerae 0395N1 after 24 hrs by spectrophotometric method; type: functional; details: 0395N1, 24 h
[4] = tested on: Bacillus cereus; experiment: Antimicrobial activity against Bacillus cereus 10987 after 24 hrs by spectrophotometric method; type: functional; details: Bacillus cereus, 10987, 24 h
[5] = Aqueous solubility of compound at 50 uM; type: physicochemical; details: buffer
[6] = tested on: Staphylococcus aureus; experiment: Antimicrobial activity against Staphylococcus aureus ATCC 33807 after 24 hrs by spectrophotometric method; type: functional; details: ATCC 33807, 24 h
[7] = tested on: HepG2; experiment: Cytotoxicity against human HepG2 cells assessed as cell viability after 24 hrs by MTS assay; type: cell-based; details: for Activity: human, hepg2, 24 h
[8] = tested on: Saccharomyces cerevisiae; experiment: Antifungal activity against Saccharomyces cerevisiae INVSc1 after 24 hrs by spectrophotometric method; type: functional; details: INVSc1, 24 h
[9] = tested on: Bacillus subtilis; experiment: Antimicrobial activity against Bacillus subtilis 1012 after 24 hrs by spectrophotometric method; type: functional; details: Bacillus subtilis, 1012, 24 h
[10] = tested on: Pseudomonas aeruginosa; experiment: Antimicrobial activity against Pseudomonas aeruginosa PAO1 after 24 hrs by spectrophotometric method; type: functional; details: PAO1, 24 h
[11] = tested on: Bacillus anthracis; experiment: Antimicrobial activity against Bacillus anthracis delta sterne after 24 hrs by spectrophotometric method; type: functional
[12] = tested on: HepG2; experiment: (§1) Cytotoxicity against human HepG2 cells assessed as cell viability at 50 uM after 24 hrs by MTS assay; type: cell-based; details: hepg2, 24 h, 50 µM
[13] = Cytotoxicity against human HepG2 cells assessed as cell viability at 50 uM after 6 hrs by MTS assay; type: cell-based; details: read-out: Activity
[14] = as §1; type: cell-based; details: HepG2 cells, read-out: Activity

SMILES	MIC [1]	solubility [2]	MIC [3]	MIC [4]	solubility [5]	MIC [6]	Activity [7]	MIC [8]	MIC [9]	MIC [10]	MIC [11]	Activity [12]	viability at 6 h, 50 µM [13]	viability at 24 h, 50 µM [14]	IC50 ([7]; Homo sapiens, HepG2, 24 h)
O=C1CC(c2ccc(Cl)c(F)c2)Oc2cc(O)cc(O)c21 (centres undefined)	250 µM (≈ 77.2 µg/mL)	500 µM (≈ 154 µg/mL)	125 µM (≈ 38.6 µg/mL)	93.8 µM (≈ 28.9 µg/mL)	soluble	125 µM (≈ 38.6 µg/mL)	Dose-dependent effect	250 µM (≈ 77.2 µg/mL)	125 µM (≈ 38.6 µg/mL)	250 µM (≈ 77.2 µg/mL)	62.5 µM (≈ 19.3 µg/mL)	Non-toxic	–	–	–
O=C1CC(c2ccc(F)cc2)Oc2cc(O)cc(O)c21 (centres undefined)	500 µM (≈ 137 µg/mL)	1000 µM (≈ 274 µg/mL)	125 µM (≈ 34.3 µg/mL)	125 µM (≈ 34.3 µg/mL)	soluble	125 µM (≈ 34.3 µg/mL)	Dose-dependent effect	250 µM (≈ 68.6 µg/mL)	125 µM (≈ 34.3 µg/mL)	500 µM (≈ 137 µg/mL)	125 µM (≈ 34.3 µg/mL)	Non-toxic	–	–	–
O=C1CC(c2ccc(F)c(F)c2)Oc2cc(O)cc(O)c21 (centres undefined)	1000 µM (≈ 292 µg/mL)	1000 µM (≈ 292 µg/mL)	125 µM (≈ 36.5 µg/mL)	125 µM (≈ 36.5 µg/mL)	soluble	125 µM (≈ 36.5 µg/mL)	Dose-dependent effect	1000 µM (≈ 292 µg/mL)	125 µM (≈ 36.5 µg/mL)	1000 µM (≈ 292 µg/mL)	62.5 µM (≈ 18.3 µg/mL)	Non-toxic	–	–	–
O=C1CC(c2ccc(Cl)c(Cl)c2)Oc2cc(O)cc(O)c21 (centres undefined)	125 µM (≈ 40.6 µg/mL)	63 µM (≈ 20.5 µg/mL)	125 µM (≈ 40.6 µg/mL)	31.2 µM (≈ 10.2 µg/mL)	soluble	62.5 µM (≈ 20.3 µg/mL)	Dose-dependent effect	31.2 µM (≈ 10.2 µg/mL)	62.5 µM (≈ 20.3 µg/mL)	125 µM (≈ 40.6 µg/mL)	31.2 µM (≈ 10.2 µg/mL)	–	17%	57%	–
O=C1CC(c2cc(F)c(F)c(F)c2)Oc2cc(O)cc(O)c21 (centres undefined)	1000 µM (≈ 310 µg/mL)	500 µM (≈ 155 µg/mL)	1000 µM (≈ 310 µg/mL)	1000 µM (≈ 310 µg/mL)	soluble	1000 µM (≈ 310 µg/mL)	Dose-dependent effect	125 µM (≈ 38.8 µg/mL)	1000 µM (≈ 310 µg/mL)	1000 µM (≈ 310 µg/mL)	1000 µM (≈ 310 µg/mL)	Non-toxic	–	–	95 µM
O=C1CC(c2cc(O)c(O)c(O)c2)Oc2cc(O)cc(O)c21 (centres undefined)	1000 µM (≈ 304 µg/mL)	63 µM (≈ 19.2 µg/mL)	1000 µM (≈ 304 µg/mL)	1000 µM (≈ 304 µg/mL)	soluble	1000 µM (≈ 304 µg/mL)	Dose-dependent effect	1000 µM (≈ 304 µg/mL)	1000 µM (≈ 304 µg/mL)	1000 µM (≈ 304 µg/mL)	1000 µM (≈ 304 µg/mL)	Non-toxic	–	–	–
